{"source": "patent US6884596B2", "about": "“Screening and therapeutic methods for promoting wakefulness and sleep” (The Regents of the University of California, priority 2000, dated 2005)", "key": {"GPR10 [1]": {"target": "T1, GPR10 (Homo sapiens, UniProt P49683)", "T1 sequence (P49683 1-370)": "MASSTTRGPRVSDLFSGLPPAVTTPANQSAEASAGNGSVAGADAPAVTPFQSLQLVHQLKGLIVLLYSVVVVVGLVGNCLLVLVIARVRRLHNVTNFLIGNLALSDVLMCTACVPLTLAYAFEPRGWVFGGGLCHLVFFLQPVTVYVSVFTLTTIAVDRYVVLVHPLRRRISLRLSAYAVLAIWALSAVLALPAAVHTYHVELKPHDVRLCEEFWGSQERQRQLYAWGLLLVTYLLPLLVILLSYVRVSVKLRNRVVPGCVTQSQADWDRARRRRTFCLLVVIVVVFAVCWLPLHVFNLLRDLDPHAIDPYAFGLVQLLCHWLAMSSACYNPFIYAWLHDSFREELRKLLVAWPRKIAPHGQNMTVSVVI", "details": "read-out: apparent affinity for GPR10; cited from earlier work"}, "GPR10 [2]": {"target": "T1, GPR10", "details": "cells transfected with GPR10; cited from earlier work"}, "[3]": {"system": "rat anterior pituitary cells", "details": "rat anterior pituitary cells in vitro; cited from earlier work"}, "[4]": {"system": "AMPA receptor-mediated thalamic oscillatory activity", "assay": "AMPA receptor-driven oscillatory activity, extracellular recording from RTN in thalamic slices", "set-up": "species or system Sprague-Dawley rats", "procedure": "(§1) Horizontal thalamic slices (400 μm) were prepared from Sprague-Dawley rats (postnatal rats 13-15) using a vibratome (Leica, VTlOOOS). The slices were transferred to a recording chamber after at least 1 hr recovery, and were superfused with artificial cerebrospinal fluid (aCSF) equilibrated with 95% 02/5% CO2 at 0.5 ml/mm. The aCSF contained (in mM): NaCl 126, KCl2.5, NaH2PO4 1.25, CaCl2 2, MgSO4 0.63, NaHCO3 26, and glucose 10. All experiments were carried out in the presence of 10 μM bicuculline maleate and cytochrome c (100 μg/ml) at 34° C. A glass electrode filled with 2 M NaCl was positioned in the nucleus of reticular thalamus (RTN), and extracellular recording was made in response to stimulation of the internal capsule (1-50 μA) every 20-30 sec. After establishing stable oscillatory activity, PrRP was applied for 15-20 min. Paired Student's t-Test was used for statistical analysis. The data were digitized at 1-5 kHz with the Neuronal Activity Acquisition Program (Eclectek Enterprise).\nThe bar on the left indicates the duration of peptide application. The traces at the bottom show representative responses before and in the presence of PrRP, taken at the time points indicated with arrow heads. […]"}, "[5]": {"system": "NMDA receptor-mediated thalamic oscillatory activity", "assay": "NMDA receptor-driven oscillatory activity in thalamic slices (low Mg2+ aCSF with CNQX)", "set-up": "species or system Sprague-Dawley rats", "details": "10 μM; low Mg2+ (0.1 mM) aCSF with 10 μM CNQX; n=4", "procedure": "as §1\nIt was next investigated whether the suppression of RTN oscillatory activity by PrRP is the consequence of AMPA receptor modulation or some general cellular effect. […] The above experiment was thus repeated in a low Mg^2+ (0.1 mM)-aCSF containing 10 μM of the AMPA receptor antagonist CNQX."}, "[6]": {"system": "sleeping Sprague-Dawley rats", "assay": "EEG/EMG sleep/wake recording in sleeping rats after i.c.v. infusion", "assay_type": "in vivo, rat", "procedure": "To determine if PrRP modulates sleep/wake or arousal states, varying doses of PrRP were injected i.c.v. into sleeping rats. EEG and EMG were recorded for 150 min in three groups, each consisting of 6 rats, that received either vehicle, 1 nmol PrRP, or 10 nmol PrRP. Analyses were conducted across five consecutive 30-min epochs; vehicle or PrRP were injected at the end of the second epoch. Vehicle-treated rats spent a substantial portion of the entire testing period asleep with characteristic EEG/EMG recordings. EEG and EMG recordings were made from Male Sprague-Dawley rats (300-400 g, Sasco, Oregon, Wis.) according to the method described previously (Berridge et al., J. Neurosci., 16:6999-7009 (1996)).\nRats were housed in pairs for at least 7-days prior to surgery with ad lib access to food and water on an 11:13 hour light:dark cycle (lights on 7:00 a.m.). Approximately 5 μl of vehicle or PrRP31 dissolved in vehicle ([…]) was infused intracerebroventricularly through a pre-implanted cannula (Berridge et al., supra (1996)). Artificial extracellular fluid (147 mM NaCl, 1.3 mM CaCl2, 0.9 mM MgCl2, 2.5 mM KCl, 5.0 mM NaH2PO4; pH 7.4) plus 200 μg/ml cytochrome c served as vehicle. Infusions were made over a 2-min period using a microprocessor-controlled infusion pump (Harvard Apparatus, South Natick, Mass.). Cortical EEG (ECoG) from the frontal cortex and EMG from the dorsal neck muscles were recorded for 60 min prior to infusion and 90 min following infusion. To be scored as a distinct epoch, the appropriate ECoG and EMG activity patterns needed to persist for a minimum of 15 sec. Time spent in each state was scored and totaled for the five 30 min epochs of the observation period, two during the preinfusion period and three during the post-infusion period. The location of the infusion needle was verified morphologically after each experiment. Data were only used for analysis when EEG recordings were electrically adequate and infusion needle placement was accurate. Statistical analysis was performed using a two-way mixed-design ANOVA with drug treatment as the between-subjects variable and time as the within-subjects variable. Post-hoc analyses were conducted using Tukey's HSD test.\nFIGS. 7B and 7C show the effects of varying concentrations of PrRP infused into the lateral ventricle on total time spent awake (FIG. 7B) and slow-wave slept (FIG. 7C). Symbols represent mean±SEM of the time (sec) spent in the two different behavioral state categories of six animals per 30-min epoch. PRE1 and PRE2 represent pre-infusion epochs. POST1-POST3 represent post-infusion epochs. Vehicle-treated rats spent a substantial proportion of the testing period asleep."}, "PrRP receptor": {"target": "T2, PrRP receptor (Homo sapiens, UniProt P49683)", "T2 construct": "expressed in transfected cells", "T2 sequence (P49683 1-370)": "T1 sequence (P49683 1-370)", "details": "mammalian cells recombinantly expressing PrRP receptor; cited from earlier work"}, "[7]": {"system": "GAERS (Genetic Absence Epilepsy Rats from Strasbourg)", "assay": "absence seizure activity (spike and wave discharges, EEG) in GAERS after ICV injection", "assay_type": "in vivo, rat", "procedure": "Electroencephalogram (EEG) recordings and intracerebroventricular (ICV) injection into GAERS were performed essentially as described in Liu et al., Brain Res. 545:1-7 (1991). Briefly, six male GAERS (300-400 g) were implanted stereotaxically (AP=−0.8, ML=1.2, CV=3 mm, with bregma as reference) with a permanent stainless steel cannula under pentobarbital anesthesia (40 mg/kg i.p.). All rats were also implanted bilaterally with 4 stainless-steel electrodes at the frontal and parietal cortex and connected to a microconnector. Both the guide cannulae and EEG electrodes were anchored to the skull using retaining screws and dental acrylic cement.\nAfter one week of recovery, stainless steel injection cannulae were introduced into the guide cannulae so as to extend 2-4 mm beyond their tips. Injection cannulae were connected to a 10 μl microsyringe driven by a pump. Five microliters saline or peptides at various concentrations were microinjected over 1 min through the cannulae while taking EEG recordings continuously throughout the duration of the experiment, in freely moving animals. During EEG recordings the rats were carefully watched and were prevented from falling asleep by gentle sensory stimulation. Seizure frequency was determined as a cumulative duration of spike and wave discharges per consecutive 20 minute periods (seconds of seizure activity per 20 minute recording) after the initial injection. Statistical analysis was performed using the Wilcoxon test.\nPrRP was administered intracerebroventricularly into GAERS rats. EEG was taken throughout the course of the experiment and time spent in seizures (spike and wave discharges (SWD) duration) was tabulated for 20 minute intervals from the initial infusion of either aCSF control or various peptide concentrations. Data from six animals receiving the same treatment were pooled. In comparison to aCSF control, PrRP was able to dose-dependently suppress seizure activity in this animal model (FIGS. 5A-5D). […] This seizure suppressing activity remained significant 60 to 80 minutes after peptide injection.\nThe chart calibration was 200 microV/1 sec."}}, "data": [{"substance": "IRPVGRF [PrRP(25-31)]", "values": [{"measurement": "Kd", "setting": "GPR10 [1]", "value": 200, "unit": "nM"}, {"measurement": "calcium mobilization", "setting": "GPR10 [2]", "value": "mobilizes calcium"}]}, {"substance": "SRAHQHSMEIRTPDINPAWYAGRGIRPVGRF [PrRP-31]", "values": [{"measurement": "prolactin-releasing activity", "setting": "[3]", "value": "having prolactin-releasing activity"}, {"measurement": "Kd", "setting": "GPR10 [1]", "value": "~1", "unit": "nM"}]}, {"substance": "TPDINPAWYAGRGIRPVGRF [PrRP-20]", "values": [{"measurement": "prolactin-releasing activity", "setting": "[3]", "value": "having prolactin-releasing activity"}, {"measurement": "Kd", "setting": "GPR10 [1]", "value": "~1", "unit": "nM"}]}, {"substance": "Prolactin Releasing Peptide [PrRP]", "values": [{"measurement": "maximum suppression of number of oscillations", "setting": "[4]; 10 μM, with DL-APV, bicuculline", "value": "approximately 40%"}, {"measurement": "inhibition of number of oscillations", "setting": "[4]; 20 μM, compared with 10 μM", "value": "comparable degree of inhibition"}, {"measurement": "effect on NMDA receptor-driven oscillation", "setting": "[5]", "value": "no discernible effect"}, {"measurement": "total time spent awake", "setting": "[6]; 1 nmol i.c.v., post-infusion epochs", "value": "only a trend"}, {"measurement": "conversion to the awake state", "setting": "[6]; 10 nmol i.c.v.", "value": "nearly complete"}, {"measurement": "duration of awake state", "setting": "[6]; 10 nmol i.c.v.", "value": "lasted for well over an hour"}, {"measurement": "slow-wave sleep", "setting": "[6]; 10 nmol i.c.v.", "value": "near-complete suppression"}, {"measurement": "total time spent awake", "setting": "[6]; 10 nmol i.c.v., post-infusion epochs (POST1, POST2)", "value": "significantly increased"}, {"measurement": "onset of normal waking EEG/EMG patterns", "setting": "[6]; injected during sleep phase", "value": "within minutes"}, {"measurement": "arachidonic acid metabolite release", "setting": "PrRP receptor", "value": "leads to activation of arachidonic acid metabolite release"}, {"measurement": "SWD duration, recovery", "setting": "[7]; 10 nmol ICV, after 40 minutes", "value": "returned to baseline"}, {"measurement": "SWD duration", "setting": "[7]; 10 nmol ICV, first 20 minutes", "value": "reduced by half"}, {"measurement": "reduction of seizure activity", "setting": "[7]; 50 nmol ICV", "value": 75, "unit": "%"}, {"measurement": "reduction of seizure activity", "setting": "[7]; 100 nmol ICV, at 20 minutes", "value": "~100", "unit": "%"}, {"measurement": "other mobility or behavioral changes", "setting": "[7]; all peptide concentrations (10-100 nmol ICV)", "value": "No other mobility or behavioral changes were observed"}, {"measurement": "calcium mobilization", "setting": "GPR10 [2]", "value": "leads to calcium mobilization"}]}]}
